# Results published in US7867731B2, “HX2004-6 polypeptide expressed in cancerous cells” (Novartis Vaccines and Diagnostics, Inc., priority 1998, dated 2011).
# Tests used:
# Type in all cases: cell-based, human
# [1] = system: TTK mRNA; assay: Antisense depletion of TTK mRNA after transfection, quantitated by real-time PCR; settings: SW620 cells, oligonucleotide final concentration 30 nM, normalized to beta-actin
# Description: A number of different oligonucleotides complementary to TTK mRNA were designed as potential antisense oligonucleotides, and tested for their ability to suppress expression of TTK. The ability of each designed antisense oligonucleotide to inhibit gene expression was tested through transfection into SW620 colon colorectal carcinoma cells. For each transfection mixture, a carrier molecule, preferably a lipitoid or cholesteroid, was prepared to a working concentration of 0.5 mM in water, sonicated to yield a uniform solution, and filtered through a 0.45 μm PVDF membrane. The antisense or control oligonucleotide was then prepared to a working concentration of 100 μM in sterile Millipore water. The oligonucleotide was further diluted in OptiME™ (Gibco/BRL), in a microfuge tube, to 2 μM, or approximately 20 μg oligo/ml of OptiMEM™. […]
# The level of target mRNA (TTK) in the transfected cells was quantitated in the cancer cell lines using the Roche LightCycler™ real-time PCR machine. […]
# An amplification mixture was prepared by mixing in the following order: 1×PCR buffer II, 3 mM MgCl2, 140 μM each dNTP, 0.175 pmol each oligo, 1:50,000 dil of SYBR® Green, 0.25 mg/ml BSA, 1 unit Taq polymerase, and H2O to 20 μl. […] As double stranded PCR product is produced during amplification, the fluorescence from SYBR®) Green increases. […]
# [2] = system: SW620 cells; assay: Cell death by LDH release (Cytotoxicity Detection Kit)
# Description: SW620 cells were transfected as described for proliferation assays. For cytotoxic effect in the presence of cisplatin (cis), the same protocol was followed but cells were left in the presence of 2 μM drug. Each day, cytotoxicity was monitored by measuring the amount of LDH enzyme released in the medium due to membrane damage. The activity of LDH was measured using the Cytotoxicity Detection Kit from Roche Molecular Biochemicals. The data is provided as a ratio of LDH released in the medium vs. the total LDH present in the well at the same time point and treatment (rLDH/tLDH).
# [3] = system: SW620 cells; assay: Soft agar colony formation assay; settings: 2000 cells per well, oligo added without delivery vehicle
# Description: The effect of TTK expression upon colony formation was tested in a soft agar assay. Soft agar assays were conducted by first establishing a bottom layer of 2 ml of 0.6% agar in media plated fresh within a few hours of layering on the cells. The cell layer was formed on the bottom layer by removing cells transfected as described above from plates using 0.05% trypsin and washing twice in media. The cells were counted in a Coulter counter, and resuspended to 10^6 per ml in media. 10 μl aliquots are placed with media in 96-well plates (to check counting with WST1), or diluted further for soft agar assay. 2000 cells are plated in 800 μl 0.4% agar in duplicate wells above 0.6% agar bottom layer. After the cell layer agar solidifies, 2 ml of media is dribbled on top and antisense or reverse control oligo is added without delivery vehicles. Fresh media and oligos are added every 3-4 days. Colonies are formed in 10 days to 3 weeks. Fields of colonies were counted by eye. Wst-1 metabolism values can be used to compensate for small differences in starting cell number. Larger fields can be scanned for visual record of differences.
Substance,depletion of TTK RNA in the transfection assays [1],"sensitization of the cells to treatment by cisplatin ([2]; 2 μM cisplatin, rLDH/tLDH)",cell death compared to control oligo (rLDH/tLDH) ([2]; day 3),"colony size and number compared to reverse control (79-9RC) or control oligonucleotides (52-3AS, 52-3RC) [3]"
79-5AS (antisense GGGACTCTTCCAAATGGGCATGACT; chemistry not given here) [Oligo 79-5AS],effectively deplete TTK RNA,–,–,–
Oligo 79-9AS: TTK antisense oligonucleotide TCCAGTAACTCTTGCGTTCCCATGG (SEQ ID NO:6) (chemistry not given here),–,does not sensitize the cells to treatment by cisplatin at a detectable level,increased death,–
79-9AS (antisense TCCAGTAACTCTTGCGTTCCCATGG; chemistry not given here) [Oligo 79-9AS],effectively deplete TTK RNA,–,–,decreased colony size and number
